According to ChEMBL document CHEMBL3885861, “Open TG-GATES”:

Species: Rattus norvegicus
Experiment: Open TG-GATES - Regimen: Daily Repeat
Format: toxicity, organism-based, Sprague-Dawley
Parameters: regimen Daily Repeat, gender Male, age 6 weeks
Conditions: in vivo, po, 500 mg/kg, route gavage, dose level High; for APTT / Bas / Eos / Fbg / Hb / Ht / Lym / MCH / MCHC / MCV / Mono / Neu / PT / Plat / RBC / Ret / WBC: tissue Blood; for KIDNEY_L / KIDNEY_R / KIDNEY_TOTAL: tissue Kidney; for LIVER: tissue Liver; for A/G / ALP / ALT / AST / BUN / CRE / Ca / Cl / DBIL / GLC / IP / K / LDH / Na / PL / RALB / TBIL / TC / TG / TP / gamma-GTP: tissue Plasma

SMILES: CN1C(=O)OC(C)(C)C1=O [TRIMETHADIONE]
- TERMINAL_BW (72 h, time 3 day): 231.2 g
- APTT (72 h, time 3 day): 19.5 s
- Bas (72 h, time 3 day): 0.2%
- Eos (72 h, time 3 day): 0.6%
- Fbg (72 h, time 3 day): 280 mg/dL
- Hb (72 h, time 3 day): 13.7 g/dL
- Ht (72 h, time 3 day): 40.3%
- Lym (72 h, time 3 day): 80%
- MCH (72 h, time 3 day): 21.4 pg
- MCHC (72 h, time 3 day): 34%
- MCV (72 h, time 3 day): 63 fL
- Mono (72 h, time 3 day): 3.2%
- Neu (72 h, time 3 day): 15.6%
- PT (72 h, time 3 day): 13.3 s
- Plat (72 h, time 3 day): 127.8 x10_4/uL
- RBC (72 h, time 3 day): 640 x10_4/ul
- Ret (72 h, time 3 day): 5.1%
- WBC (72 h, time 3 day): 107.7 x10_2/uL
- KIDNEY_L (72 h, time 3 day): 1.1 g
- KIDNEY_R (72 h, time 3 day): 1 g
- KIDNEY_TOTAL (72 h, time 3 day): 2.1 g
- LIVER (72 h, time 3 day): 13.3 g
- A/G (72 h, time 3 day): 0.8
- ALP (72 h, time 3 day): 1686.2 IU/L
- ALT (72 h, time 3 day): 57.2 IU/L
- AST (72 h, time 3 day): 106.6 IU/L
- BUN (72 h, time 3 day): 16 mg/dL
- CRE (72 h, time 3 day): 0.2 mg/dL
- Ca (72 h, time 3 day): 11.2 mg/dL
- Cl (72 h, time 3 day): 99.4 meq/L
- DBIL (72 h, time 3 day): 0.006 mg/dL
- GLC (72 h, time 3 day): 169.4 mg/dL
- IP (72 h, time 3 day): 7.7 mg/dL
- K (72 h, time 3 day): 4.5 meq/L
- LDH (72 h, time 3 day): 114.8 IU/L
- Na (72 h, time 3 day): 143 meq/L
- PL (72 h, time 3 day): 160 mg/dL
- RALB (72 h, time 3 day): 2.7 g/dL
- TBIL (72 h, time 3 day): 0.04 mg/dL
- TC (72 h, time 3 day): 88.4 mg/dL
- TG (72 h, time 3 day): 70.6 mg/dL
- TP (72 h, time 3 day): 5.8 g/dL
- gamma-GTP (72 h, time 3 day): 1 IU/L
- TERMINAL_BW ([…], time 7 day): 268.1 g
- TERMINAL_BW ([…], time 14 day): 306.3 g
- TERMINAL_BW ([…], time 28 day): 346.7 g
- APTT ([…], time 7 day): 15.5 s
- Bas ([…], time 7 day): 0.6%
- Eos ([…], time 7 day): 0.8%
- Fbg ([…], time 7 day): 272.6 mg/dL
- Hb ([…], time 7 day): 13.4 g/dL
- Ht ([…], time 7 day): 39%
- Lym ([…], time 7 day): 70.4%
- MCH ([…], time 7 day): 21.2 pg
- MCHC ([…], time 7 day): 34.4%
- MCV ([…], time 7 day): 61.8 fL
- Mono ([…], time 7 day): 4.2%
- Neu ([…], time 7 day): 24%
- PT ([…], time 7 day): 14.8 s
- Plat ([…], time 7 day): 109.8 x10_4/uL
- RBC ([…], time 7 day): 630.8 x10_4/ul
- Ret ([…], time 7 day): 4.4%
- WBC ([…], time 7 day): 138.4 x10_2/uL
- APTT ([…], time 14 day): 33.5 s
- Bas ([…], time 14 day): 0.2%
- Eos ([…], time 14 day): 0.4%
- Fbg ([…], time 14 day): 282.6 mg/dL
- Hb ([…], time 14 day): 14 g/dL
- Ht ([…], time 14 day): 40.3%
- Lym ([…], time 14 day): 77.2%
- MCH ([…], time 14 day): 21.1 pg
- MCHC ([…], time 14 day): 34.8%
- MCV ([…], time 14 day): 60.7 fL
- Mono ([…], time 14 day): 4.2%
- Neu ([…], time 14 day): 17%
- PT ([…], time 14 day): 14 s
- Plat ([…], time 14 day): 116.4 x10_4/uL
- RBC ([…], time 14 day): 664 x10_4/ul
- Ret ([…], time 14 day): 4.5%
- WBC ([…], time 14 day): 86.5 x10_2/uL
- APTT ([…], time 28 day): 19.2 s
- Bas ([…], time 28 day): 0.2%
- Eos ([…], time 28 day): 0.8%
- Fbg ([…], time 28 day): 288.6 mg/dL
- Hb ([…], time 28 day): 15.4 g/dL
- Ht ([…], time 28 day): 43.1%
- Lym ([…], time 28 day): 68.2%
- MCH ([…], time 28 day): 20.6 pg
- MCHC ([…], time 28 day): 35.7%
- MCV ([…], time 28 day): 57.9 fL
- Mono ([…], time 28 day): 3.4%
- Neu ([…], time 28 day): 27.2%
- PT ([…], time 28 day): 14.5 s
- Plat ([…], time 28 day): 103 x10_4/uL
- RBC ([…], time 28 day): 744.8 x10_4/ul
- Ret ([…], time 28 day): 2.3%
- WBC ([…], time 28 day): 84.6 x10_2/uL
- KIDNEY_L ([…], time 7 day): 1.2 g
- KIDNEY_R ([…], time 7 day): 1.2 g
- KIDNEY_TOTAL ([…], time 7 day): 2.4 g
- KIDNEY_L ([…], time 14 day): 1.3 g
- KIDNEY_R ([…], time 14 day): 1.3 g
- KIDNEY_TOTAL ([…], time 14 day): 2.6 g
- KIDNEY_L ([…], time 28 day): 1.5 g
- KIDNEY_R ([…], time 28 day): 1.4 g
- KIDNEY_TOTAL ([…], time 28 day): 2.9 g
- LIVER ([…], time 7 day): 16.6 g
- LIVER ([…], time 14 day): 17.4 g
- LIVER ([…], time 28 day): 18.4 g
- A/G ([…], time 7 day): 0.8
- ALP ([…], time 7 day): 1535.2 IU/L
- ALT ([…], time 7 day): 62.6 IU/L
- AST ([…], time 7 day): 121 IU/L
- BUN ([…], time 7 day): 16 mg/dL
- CRE ([…], time 7 day): 0.2 mg/dL
- Ca ([…], time 7 day): 10.9 mg/dL
- Cl ([…], time 7 day): 97.2 meq/L
- DBIL ([…], time 7 day): 0.016 mg/dL
- GLC ([…], time 7 day): 179 mg/dL
- IP ([…], time 7 day): 7.7 mg/dL
- K ([…], time 7 day): 4 meq/L
- LDH ([…], time 7 day): 81.4 IU/L
- Na ([…], time 7 day): 146.2 meq/L
- PL ([…], time 7 day): 166.2 mg/dL
- RALB ([…], time 7 day): 2.8 g/dL
- TBIL ([…], time 7 day): 0.042 mg/dL
- TC ([…], time 7 day): 85 mg/dL
- TG ([…], time 7 day): 96.8 mg/dL
- TP ([…], time 7 day): 6.1 g/dL
- gamma-GTP ([…], time 7 day): 1.6 IU/L
- A/G ([…], time 14 day): 0.9
- ALP ([…], time 14 day): 1426.4 IU/L
- ALT ([…], time 14 day): 57 IU/L
- AST ([…], time 14 day): 117.4 IU/L
- BUN ([…], time 14 day): 16.8 mg/dL
- CRE ([…], time 14 day): 0.2 mg/dL
- Ca ([…], time 14 day): 10.7 mg/dL
- Cl ([…], time 14 day): 100.6 meq/L
- DBIL ([…], time 14 day): 0.01 mg/dL
- GLC ([…], time 14 day): 181.6 mg/dL
- IP ([…], time 14 day): 6.7 mg/dL
- K ([…], time 14 day): 3.6 meq/L
- LDH ([…], time 14 day): 127.6 IU/L
- Na ([…], time 14 day): 146.2 meq/L
- PL ([…], time 14 day): 169.6 mg/dL
- RALB ([…], time 14 day): 3.1 g/dL
- TBIL ([…], time 14 day): 0.034 mg/dL
- TC ([…], time 14 day): 97.4 mg/dL
- TG ([…], time 14 day): 59.2 mg/dL
- TP ([…], time 14 day): 6.5 g/dL
- gamma-GTP ([…], time 14 day): 1.6 IU/L
- A/G ([…], time 28 day): 0.9
- ALP ([…], time 28 day): 1105.4 IU/L
- ALT ([…], time 28 day): 57.8 IU/L
- AST ([…], time 28 day): 141.2 IU/L
- BUN ([…], time 28 day): 15.6 mg/dL
- CRE ([…], time 28 day): 0.3 mg/dL
- Ca ([…], time 28 day): 10.4 mg/dL
- Cl ([…], time 28 day): 97.8 meq/L
- DBIL ([…], time 28 day): 0.006 mg/dL
- GLC ([…], time 28 day): 176 mg/dL
- IP ([…], time 28 day): 6.2 mg/dL
- K ([…], time 28 day): 3.6 meq/L
- LDH ([…], time 28 day): 83.2 IU/L
- Na ([…], time 28 day): 145 meq/L
- PL ([…], time 28 day): 155.2 mg/dL
- RALB ([…], time 28 day): 3.1 g/dL
- TBIL ([…], time 28 day): 0.032 mg/dL
- TC ([…], time 28 day): 83.8 mg/dL
- TG ([…], time 28 day): 122.8 mg/dL
- TP ([…], time 28 day): 6.9 g/dL
- gamma-GTP ([…], time 28 day): 1.4 IU/L
